Source: patent US20110070232A1, “Combination Therapy with an Antitumor Alkaloid” (Pharma Mar, S.A., priority 2008, published 2011)
Read-outs that look alike come from different tables or passages of the source.

Tests used:
[1] = tested on: Hs746T human gastric carcinoma cell line; assay: IC50 determination, MTS assay, 72 h (Example 1); assay type: cell-based; conditions: 72 hours of drug exposure
How it was run: (§1)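 Cells are seeded at 10,000 per well and allowed to attach for 24 h, then exposed to compound for 72 h. Viability is read by MTS/PMS, 4 h at 37 °C, with OD at 490 nm, and referenced to a time-0 plate. IC50 is averaged from two to four assays.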

[2] = tested on: HGC-27 human gastric carcinoma cell line; assay: IC50 determination, MTS assay, 72 h (Example 1); assay type: cell-based; conditions: 72 hours of drug exposure
How it was run: as §1

[3] = tested on: AGS human gastric carcinoma cell line; assay: IC50 determination, MTS assay, 72 h (Example 1); assay type: cell-based; conditions: 72 hours of drug exposure
How it was run: as §1

[4] = tested on: Hs746T tumors; assay type: in vivo, mice; conditions: for % T/C on day 14 / % T/C on day 19 / % T/C on day 22 / % T/C on day 26 / % T/C on day 29 / % T/C on day 32 / % T/C on day 39: PM00104 0.90 IV, DPI 14, 21, 28
Description: Female athymic nude mice (Harlan Sprague Dawley, Madison, Wis.) were utilized for all experiments. Animals were housed in ventilated rack caging with food and water ad libitum. The mice were acclimated for at least 5 days prior to tumor implantation with a tumor cell suspension.
The tumor model used in these studies was Hs746T cell line, which was obtained from the ATCC (Manassas, Va.).
Treatments were initiated on DPI 14.
(§2) Tumor size measurements were recorded twice weekly from the treatment initiation until the termination of the study.
(§3) Mean, standard deviation and standard error of the mean were determined for tumor volume for all animal groups at all assessments. Student's t test was performed on tumor volumes at each measurement day, including at the end of the study, to determine whether there were any statistically significant differences between combination treatment groups and single monotherapy treatment groups.

[5] = tested on: HCT-116 (colon cancer) cell line; assay: IC50 determination, MIT (tetrazolium) assay, 72 h (Example 18); assay type: cell-based, human; conditions: HCT-116, 72 hours of drug exposure
Description: HCT-116 cells were grown in McCoy's supplemented with 10% Fetal Bovine Serum (FBS), 1% penicillin/streptomycin and 2 mM L-glutamine.
(§4) Before plating, cell cultures were trypsinized and cell number estimated using an automated flow cytometer.
(§5) Cells were harvested and seeded in 96 well microtiter plates at the appropriate cell density (5,000-10,000 cells) in 150 μL of media and incubated for 24 hours to allow the cells to attach before drug addition.
(§6) After the incubation period (72 hours), 50 μL of MIT solution was added to each microtiter well and incubated for further 8 hours at 37° C. The culture medium was then removed and 50 μl, of DMSO were added to dissolve the MIT crystals. Optical densities were read at 540 nm on spectrophotometer microplate reader.
(§7) IC50 values were calculated from an average of two to four assays for each of the test agents.

[6] = tested on: MRI-H-254 tumors; assay type: in vivo, mice
Description: Female athymic nude mice (Harlan Sprague Dawley, Madison, Wis.) were utilized for all experiments. Animals were housed in ventilated rack caging with food and water ad libitum. The mice were acclimated for at least 5 days prior to tumor implantation with tumor fragments.
Treatments were initiated on DPI 20.
as §2, §3

[7] = tested on: LoVo (colon cancer) cell line; assay: IC50 determination, MIT (tetrazolium) assay, 72 h (Example 18); assay type: cell-based, human; conditions: 72 hours of drug exposure
Description: as §4, §5, §6, §7

[8] = tested on: HT-29 (colon cancer) cell line; assay: as above; assay type: cell-based, human; conditions: HT-29, 72 hours of drug exposure
Description: as §4, §5, §6, §7

[9] = docetaxel 8 IP, oxaliplatin 4 IP mg/kg/day (G4, G6, G8, G10)
[10] = docetaxel 16 IP, oxaliplatin 8 IP mg/kg/day (G2, G3, G5, G7, G9)
[11] = PM00104 0.90 IV, docetaxel 8 IP, oxaliplatin 4 IP mg/kg/day (G4, G6, G8, G10), DPI 20, 27, 34
[12] = PM00104 0.90 IV, docetaxel 16 IP, oxaliplatin 8 IP mg/kg/day (G2, G3, G5, G7, G9), DPI 20, 27, 34

`O=C1[O][Pt]2([NH][C@@H]3CCCC[C@H]3[NH]2)[O]C1=O` [Oxaliplatin, oxaliplatin] gave an IC50 [1] of 8.14 µg/mL, an IC50 [2] of 0.192 µg/mL and an IC50 [3] of 0.289 µg/mL. For the same compound, the “% T/C on day 14” value [4, 9] was 99.9%, the “% T/C on day 19” value [4, 9] was 79.9% and the “% T/C on day 22” value [4, 9] was 83.8%. For the same compound, the “% T/C on day 26” value [4, 9] was 78.6%, the “% T/C on day 29” value [4, 9] was 84.2% and the “% T/C on day 32” value [4, 9] was 87.5%. The “% T/C on day 39” value [4, 9] was 108.4%, the “% T/C on day 14” value [4, 10] was 99.6% and the “% T/C on day 19” value [4, 10] was 83.5%. The “% T/C on day 22” value [4, 10] was 84.9%, the “% T/C on day 26” value [4, 10] was 89.1% and the “% T/C on day 29” value [4, 10] was 84.5%. For the same compound, the “% T/C on day 32” value [4, 10] was 91.2%, the “% T/C on day 39” value [4, 10] was 102.9% and the “% Inhibition” value ([4]; day 14, PM00104 0.9 and oxaliplatin 4 mg/kg/day) was 0.1%. The “% Inhibition” value ([4]; day 14, PM00104 0.9 and oxaliplatin 8 mg/kg/day) was 0.4%, the “% Inhibition” value ([4]; day 19, PM00104 0.9 and oxaliplatin 4 mg/kg/day) was 20.1% and the “% Inhibition” value ([4]; day 19, PM00104 0.9 and oxaliplatin 8 mg/kg/day) was 16.5%. For the same compound, the “% Inhibition” value ([4]; day 22, PM00104 0.9 and oxaliplatin 4 mg/kg/day) was 16.2%, the “% Inhibition” value ([4]; day 22, PM00104 0.9 and oxaliplatin 8 mg/kg/day) was 15.1% and the “% Inhibition” value ([4]; day 26, PM00104 0.9 and oxaliplatin 4 mg/kg/day) was 21.4%. The “% Inhibition” value ([4]; day 26, PM00104 0.9 and oxaliplatin 8 mg/kg/day) was 10.9%, the “% Inhibition” value ([4]; day 29, PM00104 0.9 and oxaliplatin 4 mg/kg/day) was 15.8% and the “% Inhibition” value ([4]; day 29, PM00104 0.9 and oxaliplatin 8 mg/kg/day) was 15.5%. For the same compound, the “% Inhibition” value ([4]; day 32, PM00104 0.9 and oxaliplatin 4 mg/kg/day) was 12.5%, the “% Inhibition” value ([4]; day 32, PM00104 0.9 and oxaliplatin 8 mg/kg/day) was 8.8% and the “% Inhibition” value ([4]; day 39, PM00104 0.9 and oxaliplatin 4 mg/kg/day) was −8.4%. The “% Inhibition” value ([4]; day 39, PM00104 0.9 and oxaliplatin 8 mg/kg/day) was −2.9%, the IC50 [5] was 140 µM and the “% T/C on day 20” value [6, 11] was 94.5%. The “% T/C on day 23” value [6, 11] was 118.5%, the “% T/C on day 27” value [6, 11] was 113.6% and the “% T/C on day 33” value [6, 11] was 107.6%. For the same compound, the “% T/C on day 36” value [6, 11] was 115.1%, the “% T/C on day 40” value [6, 11] was 115.0% and the “% T/C on day 48” value [6, 11] was 92.4%. The “% T/C on day 20” value [6, 12] was 95.1%, the “% T/C on day 23” value [6, 12] was 100.9% and the “% T/C on day 27” value [6, 12] was 77.2%. For the same compound, the “% T/C on day 30” value [6, 12] was 81.7%, the “% T/C on day 33” value [6, 12] was 75.0% and the “% T/C on day 36” value [6, 12] was 71.1%. For the same compound, the “% T/C on day 40” value [6, 12] was 67.5%, the “% T/C on day 48” value [6, 12] was 55.9% and the “% Inhibition” value ([6]; day 20, PM00104 0.9 and oxaliplatin 4 mg/kg/day) was 5.5%. For the same compound, the “% Inhibition” value ([6]; day 20, PM00104 0.9 and oxaliplatin 8 mg/kg/day) was 4.9%, the “% Inhibition” value ([6]; day 23, PM00104 0.9 and oxaliplatin 4 mg/kg/day) was −18.5% and the “% Inhibition” value ([6]; day 23, PM00104 0.9 and oxaliplatin 8 mg/kg/day) was −0.9%. The “% Inhibition” value ([6]; day 27, PM00104 0.9 and oxaliplatin 4 mg/kg/day) was −13.6%, the “% Inhibition” value ([6]; day 27, PM00104 0.9 and oxaliplatin 8 mg/kg/day) was 22.8% and the “% Inhibition” value ([6]; day 30, PM00104 0.9 and oxaliplatin 4 mg/kg/day) was −17.1%. The “% Inhibition” value ([6]; day 30, PM00104 0.9 and oxaliplatin 8 mg/kg/day) was 18.3%, the “% Inhibition” value ([6]; day 33, PM00104 0.9 and oxaliplatin 4 mg/kg/day) was −7.6% and the “% Inhibition” value ([6]; day 33, PM00104 0.9 and oxaliplatin 8 mg/kg/day) was 25.0%. The “% Inhibition” value ([6]; day 36, PM00104 0.9 and oxaliplatin 4 mg/kg/day) was −15.1%, the “% Inhibition” value ([6]; day 36, PM00104 0.9 and oxaliplatin 8 mg/kg/day) was 28.9% and the “% Inhibition” value ([6]; day 40, PM00104 0.9 and oxaliplatin 4 mg/kg/day) was −15.0%. The “% Inhibition” value ([6]; day 40, PM00104 0.9 and oxaliplatin 8 mg/kg/day) was 32.5%, the “% Inhibition” value ([6]; day 48, PM00104 0.9 and oxaliplatin 4 mg/kg/day) was 7.6% and the “% Inhibition” value ([6]; day 48, PM00104 0.9 and oxaliplatin 8 mg/kg/day) was 44.1%. The IC50 [7] was 3.2 µM and the IC50 [8] was 38 µM.
